Reference: the supplement of paper PMC11208160

Assay: recombinant barcode read abundance after kanamycin selection (control-corrected) (log10(CPM+1)); higher = more efficient recombination; sequences stand for … in AGTGCAGAGAAAATCGGCCAGTTTTCTCTGCCTGCAGTCCGCATGCCGT…AGATTTATGCAGCGGACTGCCTTTCTCCCAAAGTGATAAACCGGACAGTATCATGGACCGGTTTTCCCGGTAATCCGTATTTGCAAGGTTGGTTTCACT; site = the 11-nt target
In short: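 IS621 bridge RNA target-binding loops were paired with targets in a pooled library tested in E. coli. After co-electroporation with a donor plasmid, cells were plated in two replicates on chloramphenicol/ampicillin LB agar (control) and on chloramphenicol/ampicillin/kanamycin carrying 0.1 mM IPTG. Barcodes at recombinant junctions were counted as counts per million, averaged and control-corrected to give recombination efficiency. Values are log10(CPM+1).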
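Further: IS621 recombinase and bridge RNA in Escherichia coli cells.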

Going from “TAGGCCACTTGGGTTCTAACCTGTTGCTT (site TAGGCCACTAT)” to “TAGGCGACTTGGGTTCTAACCTGTTGCCA (site ACCTTAGCTAA)”, the “recombinant barcode read abundance (log10)” value falls from 0.539 to 0.119.

“TAGGCGACTTGGGTTCTAACCTGTTGCCA (site TAGGCGACTTG)” and “TAGGCTACTTGGGTTCTAACCTGTTGCAG (site TAGGCTACTAT)” are within 0.2 log units of each other in “recombinant barcode read abundance (log10)” value: 0.186 for the first, 0.206 for the second.

Compared with “TAGGCTACTTGGGTTCTAACCTGTTGCAG (site TAGGCTACTCT)”, “TAGGCTACTTGGGTTCTAACCTGTTGCAG (site TAGGCTACTGT)” is lower in “recombinant barcode read abundance (log10)” value: 1.97 for the first, 0.0351 for the second.

Compared with “TAGGCTACTTGGGTTCTAACCTGTTGCAG (site TAGGCTACTTT)”, “TAGGCTACTTGGGTTCTAACCTGTTGCAT (site TAGGCTACTAT)” is higher in “recombinant barcode read abundance (log10)” value: 0.216 for the first, 1.06 for the second.

“TAGGCTACTTGGGTTCTAACCTGTTGCAT (site TAGGCTACTCT)” and “TAGGCTACTTGGGTTCTAACCTGTTGCAT (site TAGGCTACTGT)” are within 0.2 log units of each other in “recombinant barcode read abundance (log10)” value: 0.301 for the first, 0.132 for the second.

“TAGGCTACTTGGGTTCTAACCTGTTGCAT (site TAGGCTACTTT)” and “TAGGGAGCTTGGGTTCTAACCTGTTGCAT (site TAGAGAGCTCT)” are within 0.2 log units of each other in “recombinant barcode read abundance (log10)” value: 0.00693 for the first, 0.0779 for the second.

Going from “TAGGGAGCTTGGGTTCTAACCTGTTGCAT (site TAGGGAGCTAT)” to “TAGGGCACTTGGGTTCTAACCTGTTGCCG (site TAGGGCACTCA)”, the “recombinant barcode read abundance (log10)” value falls from 2.8 to 0.119.

Compared with “TAGGGCACTTGGGTTCTAACCTGTTGCCG (site TAGGGCACTCG)”, “TAGGGCCCTTGGGTTCTAACCTGTTGCCT (site AAGGGCCCTAG)” is lower in “recombinant barcode read abundance (log10)” value: 1.58 for the first, 0.111 for the second.

“TAGGGCCCTTGGGTTCTAACCTGTTGCCT (site CAGGGCCCTAG)” and “TAGGGCCCTTGGGTTCTAACCTGTTGCCT (site GAGGGCCCTAG)” are within 0.2 log units of each other in “recombinant barcode read abundance (log10)” value: 0.0445 for the first, 0.0503 for the second.

First: TAGGGCCCTTGGGTTCTAACCTGTTGCCT (site TAGGGCCCTAG)
Second: TAGGGTACTTGGGTTCTAACCTGTTGCGC (site ACAACCTCTCG)
The “recombinant barcode read abundance (log10)” value of the first is higher: 1.15 for the first, 0.0219 for the second.

Going from “TAGGGTACTTGGGTTCTAACCTGTTGCGC (site TAGGGTACTGC)” to “TAGGTACCTTGGGTTCTAACCTGTTGCAT (site TAGGTACCTAT)”, the “recombinant barcode read abundance (log10)” value falls from 2.85 to 1.98.

“TAGGTACCTTGGGTTCTAACCTGTTGCAT (site TAGGTCCCTAT)” and “TAGGTACCTTGGGTTCTAACCTGTTGCAT (site TAGGTGCCTAT)” are within 0.2 log units of each other in “recombinant barcode read abundance (log10)” value: 0.223 for the first, 0.0753 for the second.

“TAGGTACCTTGGGTTCTAACCTGTTGCAT (site TAGGTTCCTAT)” and “TAGGTCGCTTGGGTTCTAACCTGTTGCAT (site TAGATCGCTCT)” are within 0.2 log units of each other in “recombinant barcode read abundance (log10)” value: 0.0968 for the first, 0.171 for the second.

Going from “TAGGTCGCTTGGGTTCTAACCTGTTGCAT (site TAGGTCGCTAT)” to “TAGGTGACTTGGGTTCTAACCTGTTGCGG (site TAGGTGACTCC)”, the “recombinant barcode read abundance (log10)” value falls from 2.48 to 2.13.

“TAGGTGACTTGGGTTCTAACCTGTTGCGG (site TAGGTGCCTCC)” and “TAGGTGGCTTGGGTTCTAACCTGTTGCCT (site TAGGTGGCTAG)” are within 0.2 log units of each other in “recombinant barcode read abundance (log10)” value: 0.285 for the first, 0.463 for the second.

Compared with “TAGGTGGCTTGGGTTCTAACCTGTTGCCT (site TGGGCGGCTAG)”, “TAGGTGTCTTGGGTTCTAACCTGTTGCCT (site TAAGTGTCTAG)” is higher in “recombinant barcode read abundance (log10)” value: 0.105 for the first, 1.04 for the second.

First: TAGGTGTCTTGGGTTCTAACCTGTTGCCT (site TACGTGTCTAG)
Second: TAGGTGTCTTGGGTTCTAACCTGTTGCCT (site TAGGTGTCTAG)
The “recombinant barcode read abundance (log10)” value of the first is lower: 0.181 for the first, 1.33 for the second.

Going from “TAGGTGTCTTGGGTTCTAACCTGTTGCCT (site TATGTGTCTAG)” to “TAGGTTCCTTGGGTTCTAACCTGTTGCCT (site TAGGTTCCTAG)”, the “recombinant barcode read abundance (log10)” value rises from 0.0655 to 0.348.

“TAGGTTCCTTGGGTTCTAACCTGTTGCCT (site TCGGTTCCTAG)” and “TAGTACCCTTGGGTTCTAACCTGTTGCAC (site TAGTACCCTAT)” are within 0.2 log units of each other in “recombinant barcode read abundance (log10)” value: 0.161 for the first, 0.169 for the second.

Compared with “TAGTACCCTTGGGTTCTAACCTGTTGCAC (site TAGTACCCTCT)”, “TAGTACCCTTGGGTTCTAACCTGTTGCAC (site TAGTACCCTGT)” is higher in “recombinant barcode read abundance (log10)” value: 0.298 for the first, 1.28 for the second.

“TAGTACCCTTGGGTTCTAACCTGTTGCAC (site TAGTACCCTTT)” and “TAGTACCCTTGGGTTCTAACCTGTTGCAG (site TAGTACCCTAT)” are within 0.2 log units of each other in “recombinant barcode read abundance (log10)” value: 0.0304 for the first, 0.0395 for the second.

In the case of “TAGTACCCTTGGGTTCTAACCTGTTGCAG (site TAGTACCCTCT)”, the “recombinant barcode read abundance (log10)” value is reported as 1.23.
